Experimental data taken from ChEMBL document CHEMBL1201862, “PubChem BioAssay data set” (2004).
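Values below derive from 48-hour exposures of cells grown in 96-well plates, with endpoints linearly interpolated between the two concentrations bracketing the appropriate inhibition level. Abbreviation: GI50, concentration required for 50% inhibition of growth.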 The source made the active and inactive calls. Rule as the data show it: active = GI50 up to about 1.1 µM and inactive = higher.

Legend:
Experiment in all cases: DTP human tumour cell line panel, 48 h
A549 = system: A549
COLO 205 = system: COLO 205
EKVX = system: EKVX
HOP-62 = system: HOP-62
NCI-H226 = system: NCI-H226
NCI-H23 = system: NCI-H23
OVCAR-5 = system: OVCAR-5
OVCAR-8 = system: OVCAR-8
RXF 393 = system: RXF 393
SF-268 = system: SF-268
SF-539 = system: SF-539
SK-OV-3 = system: SK-OV-3
SNB-19 = system: SNB-19
SNB-75 = system: SNB-75
SW-620 = system: SW-620
UACC-62 = system: UACC-62
UO-31 = system: UO-31
LOX IMVI = system: LOX IMVI
A498 = system: A498

Measured: GI50

N/N=c1\c2ccccc2c2ccc3c4ccccc4/c(=N\N)c3c12
inactive: A549 > 100 µM | COLO 205 > 100 µM | EKVX > 100 µM | HOP-62 > 100 µM | NCI-H226 > 100 µM | NCI-H23 > 100 µM | OVCAR-5 > 100 µM | OVCAR-8 > 100 µM | RXF 393 > 100 µM | SF-268 > 100 µM | SF-539 > 100 µM | SK-OV-3 > 100 µM | SNB-19 > 100 µM | SNB-75 37.3 µM | SW-620 > 100 µM | UACC-62 > 100 µM | UO-31 > 100 µM

O=c1n(Cc2ccccc2)c2ccccc2n1CC1CS1 (stereo not drawn)
inactive: A549 > 100 µM | COLO 205 > 100 µM | EKVX > 100 µM | HOP-62 > 100 µM | LOX IMVI > 100 µM | NCI-H226 > 100 µM | OVCAR-5 > 100 µM | OVCAR-8 > 100 µM | SF-268 > 100 µM | SF-539 > 100 µM | SK-OV-3 > 100 µM | SNB-19 > 100 µM | SNB-75 58.6 µM | SW-620 > 100 µM | UACC-62 > 100 µM | UO-31 > 100 µM

CC(=O)OCc1nnn2c1C(OC(C)=O)CC2 (stereo not drawn)
inactive: A549 > 100 µM | COLO 205 > 100 µM | EKVX > 100 µM | NCI-H226 > 100 µM | NCI-H23 > 100 µM | OVCAR-5 > 100 µM | OVCAR-8 > 100 µM | RXF 393 > 100 µM | SF-539 > 100 µM | SK-OV-3 > 100 µM | SNB-19 > 100 µM | SNB-75 20.1 µM | SW-620 > 100 µM | UACC-62 > 100 µM | UO-31 > 100 µM

CC(=O)Nc1ccc(C(=O)N2N=C(C)/C(=C/c3cccc(O)c3)C2=O)cc1
inactive: A549 > 100 µM | COLO 205 > 100 µM | EKVX > 100 µM | HOP-62 > 100 µM | LOX IMVI > 100 µM | NCI-H226 > 100 µM | NCI-H23 > 100 µM | OVCAR-5 > 100 µM | OVCAR-8 > 100 µM | SF-268 > 100 µM | SF-539 > 100 µM | SNB-19 > 100 µM | SNB-75 > 100 µM | SW-620 > 100 µM | UO-31 > 100 µM

CN(C)c1ccc(C=C2C(=O)OC(C)(C)OC2=O)cc1Br
inactive: A549 > 100 µM | COLO 205 > 100 µM | EKVX > 100 µM | HOP-62 > 100 µM | LOX IMVI > 100 µM | NCI-H226 > 100 µM | NCI-H23 > 100 µM | OVCAR-5 > 100 µM | OVCAR-8 > 100 µM | RXF 393 > 100 µM | SF-268 > 100 µM | SF-539 > 100 µM | SK-OV-3 > 100 µM | SNB-19 > 100 µM | SNB-75 29.5 µM | SW-620 > 100 µM | UACC-62 > 100 µM | UO-31 > 100 µM

CC(C)(C)c1cc(Cc2ccc(S(C)(=O)=O)cc2)c(O)c(C(C)(C)C)c1
inactive: A498 16.1 µM | A549 11.7 µM | EKVX 15.1 µM | HOP-62 16.2 µM | LOX IMVI 14.6 µM | NCI-H23 16.8 µM | OVCAR-5 14.4 µM | OVCAR-8 14.7 µM | RXF 393 12.9 µM | SF-268 13.2 µM | SF-539 16.7 µM | SK-OV-3 21.7 µM | SNB-19 15.5 µM | SNB-75 14.8 µM | SW-620 17.1 µM | UACC-62 13.1 µM | UO-31 16.1 µM

CC1(C)OCC=CCO1
inactive: A549 > 100 µM | COLO 205 > 100 µM | EKVX > 100 µM | HOP-62 > 100 µM | LOX IMVI 50.9 µM | NCI-H226 > 100 µM | NCI-H23 > 100 µM | OVCAR-5 > 100 µM | OVCAR-8 > 100 µM | RXF 393 > 100 µM | SF-268 > 100 µM | SF-539 67.8 µM | SK-OV-3 > 100 µM | SNB-19 > 100 µM | SNB-75 > 100 µM | SW-620 > 100 µM | UACC-62 > 100 µM | UO-31 > 100 µM

O=C1NCCCC12CCCNC2=O
inactive: A549 > 100 µM | COLO 205 > 100 µM | EKVX > 100 µM | HOP-62 > 100 µM | LOX IMVI > 100 µM | NCI-H226 > 100 µM | NCI-H23 > 100 µM | OVCAR-8 > 100 µM | RXF 393 > 100 µM | SF-268 > 100 µM | SF-539 > 100 µM | SK-OV-3 > 100 µM | SNB-19 > 100 µM | SW-620 > 100 µM | UO-31 > 100 µM

N#Cc1ccc([N+](=O)[O-])cc1NC(N)=S
inactive: A498 > 100 µM | A549 > 100 µM | COLO 205 > 100 µM | EKVX > 100 µM | HOP-62 > 100 µM | OVCAR-5 > 100 µM | OVCAR-8 > 100 µM | SF-268 > 100 µM | SF-539 > 100 µM | SK-OV-3 > 100 µM | SNB-19 > 100 µM | SNB-75 > 100 µM | SW-620 > 100 µM | UO-31 > 100 µM

COC(=O)C1=CC2OC1(C)CCC2=O (stereo not drawn)
inactive: A549 > 100 µM | COLO 205 > 100 µM | EKVX > 100 µM | HOP-62 > 100 µM | LOX IMVI > 100 µM | NCI-H226 > 100 µM | NCI-H23 99.3 µM | OVCAR-5 > 100 µM | OVCAR-8 50.1 µM | RXF 393 > 100 µM | SF-268 > 100 µM | SF-539 > 100 µM | SK-OV-3 > 100 µM | SNB-19 > 100 µM | SNB-75 > 100 µM | SW-620 74.6 µM | UACC-62 > 10 µM | UO-31 > 100 µM

CN1C=C(C(N)=O)Cc2ccsc21
inactive: A549 > 100 µM | COLO 205 > 100 µM | EKVX > 100 µM | HOP-62 > 100 µM | NCI-H226 > 100 µM | NCI-H23 > 100 µM | OVCAR-5 > 100 µM | OVCAR-8 > 100 µM | RXF 393 > 100 µM | SF-268 > 100 µM | SF-539 > 100 µM | SK-OV-3 > 100 µM | SNB-19 > 100 µM | SNB-75 > 100 µM | SW-620 > 100 µM | UACC-62 > 100 µM | UO-31 > 100 µM

CC(C)(C1=NC(C(C)(C)C)CO1)C1=N[C@@H](C(C)(C)C)CO1 (stereo partly drawn)
inactive: A549 > 100 µM | COLO 205 > 100 µM | EKVX > 100 µM | HOP-62 > 100 µM | LOX IMVI > 100 µM | NCI-H226 > 100 µM | NCI-H23 > 100 µM | OVCAR-5 > 100 µM | OVCAR-8 > 100 µM | RXF 393 > 100 µM | SF-268 > 100 µM | SF-539 > 100 µM | SK-OV-3 > 100 µM | SNB-19 > 100 µM | SNB-75 > 100 µM | SW-620 > 100 µM | UACC-62 > 100 µM | UO-31 > 100 µM
